Assay results published in patent publication US20260070887A1 (Shenzhen Zhongge Biological Technology Co., Ltd., priority 2022, published 2026).
Read-outs that look alike come from different tables or passages of the source.

Experiments:
HT-29 cells = assay: HT-29 cell proliferation (Cell Titer-Glo, 6 days); assay type: cell-based
Outline: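 Cells seeded at 4,170 cells/mL in McCoy's 5a with 10% FBS, compound added from DMSO stock, grown 6 days at 37 °C, 5% CO2. Cell Titer-Glo luminescence; inhibition vs 0.3% DMSO control, IC50 by nonlinear regression.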

HCT116 cells = assay: HCT116 cell anti-proliferation assay; assay type: cell-based; settings: 6 days, Cell Titer-Glo
Description: HCT116 (ATCC, CCL-247) cells were cultured in McCoy's 5a complete medium (Gibco, 12330-031) containing 10% fetal bovine serum (Gibco, 10099-141C), 100 U penicillin and 100 μg/mL streptomycin (Gibco, 15140-122). The Promega kit Cell Titer-Glo (Promega: G7572) was used in this method for test.
HCT116 cells were cultured in T75 cell flasks (Corning, 430641) and the cells were placed in a 37° C., 5% CO2 incubator. Cells were passaged when reaching a cell density of 70%-80%, approximately twice per week. To perform the experiment, the test compounds were dissolved in DMSO to prepare a 10 mM stock solution, and the test compounds were added to the 384-well cell test plate (Corning, 3765) at the predetermined concentration (19.5 nM-[…]) using ECHO. […] cells were digested and 150 cells (60 μL medium) were seeded per well in the test plate. The 384-well plate was then centrifuged at 500 rpm for 1 minute, and then placed in a 37° C., 5% CO2 incubator for 6 days of cultivation. Six days later, the cell culture plate was equilibrated for 10 minutes at room temperature, 25 μL of Cell Titer-Glo was added to each well, and the mixture was shaken and mixed well and let stand for 5 minutes. The luminescence values for samples in various wells were read using a microplate reader in Luminescence mode.
The percentage of inhibition of cell proliferation by the test compound at each concentration was calculated by comparing with the values of the control group (0.2% DMSO). The IC50 values of the compounds were obtained by concentration-inhibition rate nonlinear regression analysis of the test compounds using GraphPad Prism 9.

OVCAR-3 cells = assay: OVCAR-3 cell proliferation (Cell Titer-Glo, 10 days); assay type: cell-based, human
Outline: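 IC50 was fitted by nonlinear regression of percent inhibition versus the 0.1% DMSO control. Luminescence was read with Cell Titer-Glo after 10 days of co-culture of logarithmic-phase cells (400/well) with compound at 0.12 nM–10 μM final, in medium with 20% fetal bovine serum and 0.01 mg/mL insulin.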

SMILES | IC50 (HT-29 cells; Homo sapiens, HT-29, 144 h) [nM] | IC50 (HCT116 cells; Homo sapiens, HCT-116, 144 h) [nM] | IC50 (OVCAR-3 cells; Homo sapiens, OVCAR-3, 240 h) [nM] | IC50 (HT-29 cells) [nM] | IC50 (HCT116 cells) [nM] | IC50 (OVCAR-3 cells) [nM]
CC1(C)Cn2c(cc3c(NC(=O)c4ccc(NS(=O)(=O)CCO)cc4N4CCC5(CC4)CC5)cccc32)CO1 [Example 371, N-(3,3-dimethyl-3,4-dihydro-1H-[1,4]oxazino[4,3-a]indol-9-yl)-4-(2-hydroxyethylsulfonamido)-2-(6-azaspiro[2.5]octan-6-yl)benzamide] | ≤ 200 | > 10000 | ≤ 50 |  |  | 
CC1(O)CCCn2c1cc1c(NC(=O)c3ccc(NS(=O)(=O)CCO)cc3N3CCC4(CC3)CC4)cccc12 (stereo not drawn) [Example 372] |  |  |  | ≤ 200 | > 10000 | ≤ 50
N#Cc1ccc(NC(=O)c2ccc(NS(=O)(=O)CCO)cc2N2CCC3(CC2)CC3)c2cc3n(c12)CCC(F)(F)C3 [Example 379] |  |  |  | ≤ 200 | 9800 | ≤ 50
COc1ccc(NC(=O)c2ccc(NS(=O)(=O)CCO)cc2N2CCC3(CC2)CC3)c2cc3n(c12)CC(C)(C)OC3 [Example 455, 4-((2-hydroxyethyl)sulfonamido)-N-(6-methoxy-3,3-dimethyl-3,4-dihydro-1H-[1,4]oxazinyl[4,3-a]indol-9-yl)-2-(6-azaspiro[2.5]oct-6-yl)benzamide] | ≤ 200 | > 10000 | ≤ 50 |  |  | 
COc1ccc(NC(=O)c2ccc(NS(=O)(=O)CCO)cc2N2CCC(=C(F)F)CC2)c2cc3n(c12)CC(C)(C)OC3 [Example 465, 2-(4-(difluoromethylene)piperidin-1-yl)-4-((2-hydroxyethyl)sulfonamido)-N-(6-methoxy-3,3-dimethyl-3,4-dihydro-1H-[1,4]oxazinyl[4,3-a]indol-9-yl)benzamide] |  |  |  | ≤ 200 | > 10000 | ≤ 50

Next, values leading:

IC50 (HT-29 cells; Homo sapiens, HT-29, 144 h) [nM] | IC50 (HCT116 cells; Homo sapiens, HCT-116, 144 h) [nM] | IC50 (OVCAR-3 cells; Homo sapiens, OVCAR-3, 240 h) [nM] | IC50 (HT-29 cells) [nM] | IC50 (HCT116 cells) [nM] | IC50 (OVCAR-3 cells) [nM] | SMILES
200 to 1000 | 8200 | 50 to 500 |  |  |  | N#Cc1ccc(NC(=O)c2ccc(NS(=O)(=O)CCO)cc2N2CCC(=C(F)F)CC2)c2cc3n(c12)CCOC3 [Example 364, N-(6-cyano-3,4-dihydro-1H-[1,4]oxazino[4,3-a]indol-9-yl)-2-(4-(difluoromethylene)piperidin-1-yl)-4-((2-hydroxyethyl)sulfonamido)benzamide]
200 to 1000 | > 10000 | ≤ 50 |  |  |  | CC1(C)Cn2c(cc3c(NC(=O)c4ccc(NS(=O)(=O)CCO)cc4N4CCC(=C(F)F)CC4)cccc32)CO1 [Example 370, 2-(4-(difluoromethylene)piperidin-1-yl)-N-(3,3-dimethyl-3,4-dihydro-1H-[1,4]oxazino[4,3-a]indol-9-yl)-4-((2-hydroxyethyl)sulfonamido)benzamide]
≤ 200 | 8700 | ≤ 50 |  |  |  | O=C(Nc1cccc2c1cc1n2CCC(F)(F)C1)c1ccc(NS(=O)(=O)CCO)cc1N1CCC(=C(F)F)CC1 [Example 374, N-(8,8-difluoro-6,7,8,9-tetrahydropyridino[1,2-a]indol-1-yl)-2-(4-(difluoromethylene)piperidin-1-yl)-4-((2-hydroxyethyl)sulfonamido)benzamide]
 |  |  | ≤ 200 | > 10000 | ≤ 50 | N#Cc1ccc(NC(=O)c2ccc(NS(=O)(=O)CCO)cc2N2CCC(=C(F)F)CC2)c2cc3n(c12)CCC(F)(F)C3 [Example 378]
